Test results from patent US8911953B2, “TDF-related compounds and analogs thereof, analogs and bioactive fragments” (Thrasos Innovation, Inc., priority 2005, dated 2014).
Positions of bridges follow the written chain, without caps; N, C: chain ends. No end group written: not given here.

Experiments:
[1] = test system: bladder cancer cells (5637); test: Cisplatin-induced apoptosis/necrosis in bladder cancer cells; type: cell-based, human; settings: cisplatin at different concentrations
[2] = test system: rat osteosarcoma (17/2.8) cells; test: Rat osteosarcoma (ROS) cell-based alkaline phosphatase assay; settings: 0.02-200 uM, 2 days, relative to BMP-7 standard
Method: BMP interactions with Type I and Type II receptors can induce alkaline phosphatase activity, a marker for osteoblast activity, in ROS cells. An assay procedure as described in Maliakal, J. C., Asahina, I., Hauschka, P. V., and Sampath, T. K. (1994) Growth factors 11, 227-234, was used to determine the biological activities of TDFRP compounds. In a typical experiment, rat osteosarcoma (17/2.8) cells are plated in 96 well plates (3.0×10^4 cells/well) and incubated overnight at 37 C in 5-6% CO2 incubator. The next day, healthy and confluent cells are treated with increasing concentrations of BMP-7 standard (1-10,000 ng/ml) served as positive control or TDFRP compounds (0.02-200 uM) prepared in medium containing 1% FBS and incubated for 2 days at 37 C in 5-6% CO2 incubator. The cellular content of alkaline phosphatase activity is determined by the method of Reddi and Huggins (Reddi, A. H., and Huggins, C. B (1972) Proc. Natl. Acad. Sci. USA 69, 1601-1605). Enzyme estimations are performed in 96 well plates. Following removal of culture medium, cells are washed with pre-warmed PBS (150 ul) and incubated in 100 ul of pre-warmed 1% Triton X-100 for 30 minutes at 37 C. Plates are centrifuged for 10 minutes at full speed, and recovered samples (15 ul) are assayed for enzyme activity by adding 90 ul p-nitrophenyl phosphate (Sigma) as a substrate in 0.05 M glycine-NaOH buffer, pH 9.3 and incubating for 20 minutes at 37 C. The reaction is stopped by adding 75 ul of 0.2 N NaOH/well and absorbance at 405/490 nm is measured on a Dynatech MR 700 plate reader. Results are expressed as relative activities compared to a BMP-7 standard.
BMP interactions with Type I and Type II receptors can induce alkaline phosphatase activity, a marker for osteoblast activity, in ROS cells. An assay procedure as described earlier (Maliakal, J. C., Asahina, I., Hauschka, P. V., and Sampath, T. K. (1994) Growth factors 11, 227-234) was used to determine the biological activities of TDFRP compounds. In a typical experiment, rat osteosarcoma (17/2.8) cells are plated in 96 well plates (3.0×10^4 cells/well) and incubated overnight at 37° C. in 5-6% CO2 incubator. […] The cellular content of alkaline phosphatase activity is determined by the method of Reddi and Huggins (Reddi, A. H., and Huggins, C. B (1972) Proc. Natl. Acad. Sci. USA 69, 1601-1605). […] The reaction is stopped by adding 75 ul of 0.2 N NaOH/well and absorbance at 405/490 nm is measured on a Dynatech MR 700 plate reader. Results are expressed as relative activities compared to a BMP-7 standard.

NTN mice = test: Nephrotoxic serum nephritis (NTN) model of chronic renal failure; type: in vivo, mouse; settings: oral 5 mg/kg/24 hr, weeks 6-9
Excerpt: Attenuation of renal fibrosis progression by TDFRP compound in the chronic renal failure mouse model, nephrotoxic serum nephritis (NTN). A: NTN Model Experimental Protocol. Nephrotoxic serum was given intravenously on Day 0 (D0) and animals were sacrificed either at 6 weeks or 9 weeks. Two different drug regimens were used: treatment from weeks 1-6 or from weeks 6-9. B: Kidney section of 6-9 week, vehicle-treated […] animal, C: Kidney section of animal received oral administration of TDFRP compound (SEQ ID NO 45) (5 mg/kg/24 hr) from weeks 6-9.
Renal fibrosis involves interestitial fibrosis, tubular atrophy, and glomerulosclerosis. The mouse nephrotoxic serum nephritis (NTN) renal fibrosis model mimics human chronic renal injury. NTN mice develop glomerulonephritis following injection with nephrotoxic serum (NTS), which progresses to tubulointerstitial disease and eventually renal fibrosis after 6 weeks (see Lloyd, et al. (1997) J. Exp. Med. 185, 1371-1380.; Zeisberg et al. (2003) Nat. Med. 9, 964-968.)
Nephrotoxic serum nephritis (NTN) is a model of progressive chronic renal injury. Mice given injections of nephrotoxic serum (NTS) develop glomerulonephritis, leading to tubulointerstitial disease associated with EMT, and ultimately renal fibrosis, over a period of about six weeks. […] In these studies, BMP-7 was able to restore expression of E-cadherin proteins in previously damaged tubules. […] For a review of the above see, Zeisberg et al., Nature Medicine, 9; 7 pp 964-968, (2003) and Kalluri et al., J. Clin Investigation 112:1776-1784 (2003).

CYFDDSSNVLCKKYRS (disulfide 1-11 (inferred); not fully specified) [SEQ ID NO:45]
apoptosis/necrosis induced by cisplatin (interference with anti-tumor activity) [1]: does not alter | induction of alkaline phosphatase activity [2]: did not induce | glomerulosclerosis (NTN mice): attenuated the severity of glomerulosclerosis | matrix deposition (NTN mice): attenuated the amount of matrix deposition | tubular atrophy (NTN mice): attenuated the severity of tubular atrophy | progression of renal fibrosis (NTN mice; 5 mg/kg): significantly attenuated
